{
  "source": "paper PMC5519633",
  "about": "“Endolysosomal targeting of a clinical chlorin photosensitiser for light-triggered delivery of nano-sized medicines” (Scientific Reports, 2017)",
  "key": {"[1]": {"test_system": "human pharyngeal FaDu carcinoma cells", "settings": "cited from earlier work", "source_text": "The lower uptake of the free chlorin is consistent with its lower PDT efficacy compared to the conjugates, as discussed below. […] Figure 3H and I show sequential images ..."}, "[2]": {"test_system": "MC28 cells", "assay": "Cellular uptake and subcellular localisation, confocal microscopy with LysoTracker Green", "type": "cell-based, rat", "settings": "same concentration and image intensity scale as the conjugates", "method": "Cells were seeded in small Petri dishes, with a glass cover slip bottom window for use with an inverted microscope (Fluorodish, World Precision Inst. UK), and allowed to attach overnight. Cells were incubated for 24 h with the compounds (2.5 µM). Afterwards, culture medium was removed and replaced with fresh medium containing Lysotracker Green (100 nM) for 30 min before microscope imaging. Cells were washed 2 times with PBS and incubated with drug-free/phenol red-free medium for confocal imaging using an Olympus Laser scanning confocal microscope (FluoView FV1000, 60x magnification, NA 1.20, Olympus UK Ltd, Essex, UK). Fluorescence from the photosensitiser was recorded within the range of 620–720 nm using a 405 nm laser for the excitation. For LysoTracker Green, cells were illuminated at 488 nm and the fluorescence signal was recorded at 500–550 nm. Colocalisation analysis and image processing of the 16-bit images were performed with ImageJ software."}, "[3]": {"settings": "in dimethylformamide; cited from earlier work"}, "[4]": {"settings": "cited from earlier work", "source_text": "The rationale for selecting chlorin e6 as the photosensitiser for this study on PCI was based on its favourable photosensitising properties but also on its poor lysosomal localisation[40] and bioavailability. The cellular uptake and membrane transport of chlorin e6 has been studied in detail in relation to its acid-base properties. The structure of chlorin e6 contains three adjacent carboxylic acid functions with pKa7.9–8.3[47]which are thus only partially ionised at physiological pH leading to poor aqueous solubility, which complicates systemic administration. At lower pH, as is typical for t ..."}, "[5]": {"assay": "Singlet oxygen quantum yield by time-resolved 1270 nm phosphorescence in deuterated methanol", "type": "physicochemical", "settings": "aerated deuterated methanol (CD3OD); 532 nm laser excitation; absorbance matched to Rose Bengal reference; zero-time intercept analysis; estimated experimental error +/- 0.06", "protocol": "For the singlet oxygen studies, absorption spectra of the compounds were measured using a Perkin-Elmer Lambda 25 UV/Vis spectrometer (Perkin-Elmer, Beaconsfield, UK) with quartz cuvettes. The singlet oxygen phosphorescence at 1270 nm was detected using time-resolved photon counting from aerated solutions in deuterated methanol (CD3OD) in quartz cuvettes. […] Integrated time-resolved phosphorescence traces were analysed using FluoFit software (PicoQuant GmbH, Berlin, Germany) to extract the singlet oxygen decay lifetime. […]"}, "[6]": {"test_system": "MC28 cells", "assay": "In vitro PDT phototoxicity, MTT assay", "type": "cell-based, rat", "settings": "3.2 µM, 18 h incubation, 5 min illumination, 420 nm, 7 mW cm-2, MTT 48 h after light, three independent experiments"}, "[7]": {"assay": "Absorption spectra as a function of concentration (test for aggregation)", "type": "physicochemical", "settings": "methanolic solution; up to 8 μM; 398 nm for conjugates, 399 nm for chlorin e6", "method": "For the determination of the singlet oxygen quantum yield (ΦΔ), deuterated methanol (CD3OD) was used since singlet oxygen has a relatively long lifetime in deuterated solvents. To confirm that the methanolic solutions of the conjugates and chlorin e6 at the concentrations studied were monomeric, absorption spectra were recorded as a function of concentration. […] The singlet oxygen quantum yields in deuterated methanol were measured using a standard reference compound, Rose Bengal (ΦΔ = 0.76)[43] using matched reference solution absorbances at the laser wavelength of 532 nm. Using standard zero-point intercept analysis of the singlet oxygen decays, the quantum yield of chlorin e6 was calculated as 0.67, which is in good agreement with the literature, as reviewed by Redmond et al.[43]. Morjzisova et al. reported the quantum yields of several chlorins in dimethylformamide and measured a value of 0.63 for chlorin e6, and observed a similar value for another clinical chlorin PDT photosensitiser, mTHPC (0.68) and disulfonated tetraphenyl chlorin (0.66)[44].\nFor the singlet oxygen studies, absorption spectra of the compounds were measured using a Perkin-Elmer Lambda 25 UV/Vis spectrometer (Perkin-Elmer, Beaconsfield, UK) with quartz cuvettes. […]"}, "[8]": {"test_system": "KB cells", "assay": "In vitro PDT/PCI phototoxicity with saporin, MTT assay", "type": "cell-based, human", "settings": "saporin 20 nM, without photosensitiser"}, "[9]": {"settings": "standard reference compound in deuterated methanol; cited from earlier work", "source_text": "For the determination of the singlet oxygen quantum yield (ΦΔ), deuterated methanol (CD3OD) was used since singlet oxygen has a relatively long lifetime in deuterated solvents. To confirm that the methanolic solutions of the conjugates and chlorin e6 at the concentrations studied were monomeric, absorption ..."}},
  "data": [
    {"molecule": "C=Cc1c(C)c2cc3nc(c(CC(=O)O)c4[nH]c(cc5nc(cc1[nH]2)C(C)=C5CC)c(C)c4C(=O)O)[C@@H](CCC(=O)O)[C@@H]3C", "note": "[chlorin e6]", "values": [
      {"measurement": "cellular uptake of free chlorin e6 compared to dendrimer conjugates of chlorin e6", "setting": "[1]", "value": "an order of magnitude lower"},
      {"measurement": "cellular uptake, intracellular fluorescence relative to the conjugates", "setting": "[2]", "value": "much lower fluorescence"},
      {"measurement": "singlet oxygen quantum yield", "setting": "[3]", "value": 0.63},
      {"measurement": "pKa of the three carboxylic acid functions", "setting": "[4]", "value": "7.9–8.3"},
      {"measurement": "singlet oxygen quantum yield (ΦΔ)", "setting": "[5]", "value": 0.67},
      {"measurement": "loss of viability (PDT)", "setting": "[6]", "value": "less than 20%"},
      {"measurement": "peak absorbance of the Soret band versus concentration (monomeric or aggregated)", "setting": "[7]", "value": "linear"}
    ]},
    {"molecule": "disulfonated tetraphenyl chlorin", "values": [
      {"measurement": "singlet oxygen quantum yield", "setting": "[3]", "value": 0.66}
    ]},
    {"molecule": "Oc1cccc(-c2c3nc(c(-c4cccc(O)c4)c4ccc([nH]4)c(-c4cccc(O)c4)c4nc(c(-c5cccc(O)c5)c5ccc2[nH]5)CC4)C=C3)c1", "note": "[mTHPC]", "values": [
      {"measurement": "singlet oxygen quantum yield", "setting": "[3]", "value": 0.68}
    ]},
    {"molecule": "saporin", "values": [
      {"measurement": "reduction in viability, saporin alone", "setting": "[8]", "value": "< 20", "unit": "%"}
    ]},
    {"molecule": "O=C([O-])c1c(Cl)c(Cl)c(Cl)c(Cl)c1-c1c2cc(I)c(=O)c(I)c-2oc2c(I)c([O-])c(I)cc12.[Na+].[Na+]", "note": "[Rose Bengal]", "values": [
      {"measurement": "singlet oxygen quantum yield (ΦΔ) of reference standard", "setting": "[9]", "value": 0.76}
    ]}
  ]
}
